How the values were obtained:
[1] = system: angiogenesis (tube formation); assay: Assay by angiogenesis kit (KZ-1000), tube formation; assay type: cell-based
Protocol: The anti-angiogenic effect obtained by combined use of 20 μM of α-SQMG C18:0 administration and 4 Gy of ^60Co γ-ray irradiation was investigated using an angiogenesis kit (“angiogenesis kit KZ-1000” of Kurabo Industries Ltd.).
A drug named Suramin is the known substance as a drug suppressing angiogenesis, and it is known that its action is to inhibit a growth factor receptor of a vascular endothelial cell. In the present Example, Suramin was used as a positive control at 50 μM.
As described above, the “theoretical additive point of combined use” is calculated by multiplication, and the theoretical value is compared with an actually measured value.

[2] = system: Bovine aortic endothelial cells (BAEC); assay: Colony assay on vascular endothelial cells with 60Co γ-ray irradiation; assay type: cell-based; set-up: key to actually measured SF value of combined use group / actually measured SF value of combined use: SF = colonies/seeded cells×(PE/100); PE = control colony formation rate; details: for SF (cell surviving fraction), administration alone / synergistic effect of combined use with radiation on suppression of proliferation of vascular endothelial cells: 10 μM; for SF (cell surviving fraction), administration alone: 24 hours, no irradiation; for synergistic effect of combined use with radiation on suppression of proliferation of vascular endothelial cells: 4 Gy and/or 6 Gy
Protocol: Bovine aortic endothelial cells (BAEC) were appropriately seeded on a petri dish, and adhesion of cells was confirmed after 2 to 3 hours. In a group of α-SQMG C18:0 administration alone and a combined use group, the cells were treated with 10 μM of α-SQMG C18:0. After 24 hours, a medium was exchanged in all test groups, and 4 Gy of ^60Co γ-ray was irradiated in a group of irradiation alone and a combined use group. After the cells were cultured in a CO2 incubator at 37° C. for 10 to 12 days, formed colonies were fixed with formalin, and stained with a crystal violet staining solution. On each plate, the number of colonies consisting of about 50 or more cells was counted, and cell surviving fraction (SF) was obtained according to the following equation.
SF (cell surviving fraction)=number of colonies/number of seeded cells×(PE/100)
Herein, PE (plating efficiency) represents a colony formation rate (%) on a plate of a control.
An experiment was performed three times, and an average of them was calculated.
The same experiment as that of Experimental Example 2-1 was performed except that a radiation dose 6 Gy was irradiated in place of 4 Gy used in Experimental Example 2-1. […]

[3] = 4 Gy 60Co γ-ray + α-SQMG C18:0 20 μM or Suramin 50 μM

| SMILES | tube formation rate, Actually measured value, combined use [1, 3] | tube formation rate, Theoretical value (theoretical additive point of combined use) [1, 3] | tube formation rate, use alone ([1]; α-SQMG C18:0 20 μM, Suramin 50 μM, no irradiation) | actually measured SF value of combined use group ([2]; 10 μM + 4 Gy 60Co γ-ray) | theoretical additive point of combined use (SF) ([2]; 10 μM + 4 Gy 60Co γ-ray) | SF (cell surviving fraction), administration alone [2] | actually measured SF value of combined use group ([2]; 10 μM + 6 Gy 60Co γ-ray) | theoretical additive point of combined use (SF) ([2]; 10 μM + 6 Gy 60Co γ-ray) | synergistic effect of combined use with radiation on suppression of proliferation of vascular endothelial cells [2] |
| --- | --- | --- | --- | --- | --- | --- | --- | --- | --- |
| Cc1ccc(C(=O)Nc2ccc(S(=O)(=O)O)c3cc(S(=O)(=O)O)cc(S(=O)(=O)O)c23)cc1NC(=O)c1cccc(NC(=O)Nc2cccc(C(=O)Nc3cc(C(=O)Nc4ccc(S(=O)(=O)O)c5cc(S(=O)(=O)O)cc(S(=O)(=O)O)c45)ccc3C)c2)c1 [Suramin, reference compound] | 0.232 | 0.219 | 0.3386 | – | – | – | – | – | – |
| CCCCCCCCCCCCCCCCCC(=O)OCC(CO[C@H]1O[C@H](CS(=O)(=O)[O-])[C@@H](O)[C@H](O)[C@H]1O)OC(=O)CCCCCCCCCCCCCCCCC.[Na+] (stereo partly drawn) [α-SQDG C18:0, 3-O-(6-deoxy-6-sulfo-α-D-glucopyranosyl)-1,2-di-O-stearoyl-glycerol sodium salt] | – | – | – | 0.0882 | 0.1765 | 0.9216 | – | – | – |
| CCCCCCCCCCCCCC(=O)OCC(O)CO[C@H]1O[C@H](CS(=O)(=O)[O-])[C@@H](O)[C@H](O)[C@H]1O.[Na+] (stereo partly drawn) [α-SQMG C14:0, 3-O-(6-deoxy-6-sulfo-α-D-glucopyranosyl)-1-O-myristoyl-glycerol sodium salt] | – | – | – | – | – | 1.0605 | 0.0109 | 0.0715 | considerably great synergistic effect |
| CCCCCCCCCCCCCCCC(=O)OCC(O)CO[C@H]1O[C@H](CS(=O)(=O)[O-])[C@@H](O)[C@H](O)[C@H]1O.[Na+] (stereo partly drawn) [α-SQMG C16:0, 3-O-(6-deoxy-6-sulfo-α-D-glucopyranosyl)-1-O-palmitoyl-glycerol sodium salt] | – | – | – | – | – | 0.9553 | 0.0233 | 0.0644 | considerably great synergistic effect |
| CCCCCCCC/C=C\CCCCCCCC(=O)OCC(O)CO[C@H]1O[C@H](CS(=O)(=O)[O-])[C@@H](O)[C@H](O)[C@H]1O.[Na+] (stereo partly drawn) [α-SQMG C18:1, 3-O-(6-deoxy-6-sulfo-α-D-glucopyranosyl)-1-O-oleoyl-glycerol sodium salt] | – | – | – | 0.0843 | 0.1990 | 1.0392 | – | – | – |
| CCCCCCCCCCCCCCCCCC(=O)OCC(O)CO[C@H]1O[C@H](CS(=O)(=O)[O-])[C@@H](O)[C@H](O)[C@@H]1O.[Na+] (stereo partly drawn) [α-SRMG C18:0, 3-O-(6-deoxy-6-sulfo-α-D-mannopyranosyl)-1-O-stearoyl-glycerol sodium salt] | – | – | – | 0.0784 | 0.1677 | 0.8758 | – | – | – |
| CCCCCCCCCCCCCCCCCC(=O)OCC(CO[C@@H]1O[C@H](CS(=O)(=O)[O-])[C@@H](O)[C@H](O)[C@H]1O)OC(=O)CCCCCCCCCCCCCCCCC.[Na+] (stereo partly drawn) [β-SQDG C18:0, 3-O-(6-deoxy-6-sulfo-β-D-glucopyranosyl)-1,2-di-O-stearoyl-glycerol sodium salt] | – | – | – | 0.0908 | 0.1377 | 0.7190 | – | – | – |
| CCCCCCCCCCCCCCCCCC(=O)OCC(O)CO[C@@H]1O[C@H](CS(=O)(=O)[O-])[C@@H](O)[C@H](O)[C@H]1O.[Na+] (stereo partly drawn) [β-SQMG C18:0, 3-O-(6-deoxy-6-sulfo-β-D-glucopyranosyl)-1-O-stearoyl-glycerol sodium salt] | – | – | – | 0.0922 | 0.1640 | 0.8562 | – | – | – |
